Experimental data published in US20020107235A1, “Glucocorticoid receptor modulators” (priority 2000, published 2002).

Columns and labels:
[1] = tested on: IL-8 (Interleukin-8) production in SW1353 human chondrosarcoma cells; test: glucocorticoid inhibition of IL-1 induced IL-8 production in human chondrosarcoma cells; type: cell-based; conditions: 20 ng/ml IL-1 beta, 24 hours after addition of IL-1, ELISA, read-out: IC50, inhibitor of IL-8 expression
Method: (§1) This assay, the glucocorticoid inhibition of IL-1 (Interleukin-1) induced MMP-1 (Matrix Metalloproteinase-1) and IL-8 (Interleukin-8) production in human chondrosarcoma cells, is conducted as follows: SW1353 human chondrosarcoma cells (obtained from ATCC) from passage 12 through passage 19 are used in a 96 well format assay. Cells are plated at confluence into 96 well plates in DMEM (Dulbecco's Modified Eagle Medium) with 10% fetal bovine serum and incubated at 37° C., 5% CO2. After 24 hours, serum containing media is removed and replaced with 200 ul/well DMEM containing 1 mg/L insulin, 2 g/L lactalbumin hydrosylate, and 0.5 mg/L ascorbic acid and returned to incubation at 37° C., 5% CO2. […] IL-8 production is assessed using the Quantikine human IL-8 ELISA kit from R&D Systems (D8050) on samples diluted 60-fold in RD5P Calibrator Diluent, following the manufacturer's protocol. The percent of the average IL-1 control is determined for the average of each of the triplicate samples following subtraction of the average signal from untreated cells. IC50's are determined from log linear plots of the percent of control versus the concentration of inhibitor. […] MMP-1 production is assessed via the Bio-Trak MMP-1 ELISA kit from Amersham (RPN2610) on 100 ul of neat sample following the manufacturer's protocol. […]

[2] = tested on: MMP-1 (Matrix Metalloproteinase-1) production in SW1353 human chondrosarcoma cells; test: glucocorticoid inhibition of IL-1 induced MMP-1 production in human chondrosarcoma cells; type: cell-based; conditions: 20 ng/ml IL-1 beta, 72 hours after IL-1 addition, ELISA, read-out: IC50, inhibitor of MMP1 expression
Method: as §1

## C[C@@H]1C[C@H]2[C@@H]3CCC4=CC(=O)C=C[C@]4(C)[C@@]3(F)[C@@H](O)C[C@]2(C)[C@@]1(O)C(=O)CO [Dexamethasone, (11β, 16α)-9-fluoro-11,17,21-trihydroxy-16-methylpregna-1,4-diene-3,20-dione]
[1]
  IC50: 5 nM
[2]
  IC50: 5 nM
